Reference: patent US6955907B1, “Alkaline, protease VapK suitable for laundry detergent, VapK gene, recombinant expression vector, and transformed microorganisms” (priority 1999, dated 2005)
“Also recorded” adds a separate entry of the source.

Columns and labels:
protease VapK [1] = assay: Effects of inhibitors on the activity of the protease VapK; type: biochemical, Vibrio metschnikovii KS1
Method: (§1) The activity of the alkaline protease was determined by the method of Yanagida et al with minor modifications. The reaction mixture was prepared by mixing 100 mM sodium carbonate solution with the supernatant formed after centrifuging the culture broth at 6,000 rpm for 15 minutes. 0.5 ml of the fermentation broth was mixed with 2.5 ml of 1% prewarmed casein solution in 100 mM sodium carbonate buffer (pH 10.5). The resulting mixture was incubated at 37° C. for 10 minutes. The reaction was terminated by adding a solution consisting 0.22 M trichloroacetic acid, 0.22 M sodium acetate and 0.22 M acetic acid. The reaction mixture was placed on ice for 10 minutes followed by centrifugation. 1 ml of the supernatant was mixed with 9 ml of distilled water. The optical density (O.D.) was measured at 280 nm. The result is indicated as unit. One unit of the enzyme is defined as the amount of protein which produces an increase of 0.1 absorbance unit under the assay conditions.

protease VapK [2] = assay: Resistance of the protease VapK to surfactants (N-succinyl-ala-ala-pro-phe-p-nitroanilide substrate); type: biochemical, Vibrio metschnikovii KS1; settings: for Relative Residual Activity (%): 25° C. for 25 minutes, relative to activity without surfactant
Method: In addition, the resistance of the protease VapK to various surfactants was tested. The enzyme sample was appropriately diluted in distilled water. The diluted solution was mixed with each surfactant in the same ratio. The mixture was reacted at 25° C. for 25 minutes. A substrate solution of 5 mM N-succinyl-ala-ala-pro-phe-p-nitroanilide in 1 M tris-HCl, pH 9.0 was added to the reaction mixture in the ratio of 1 to 10. The reaction mixture was reacted at 25° C. for 30 minutes. The optical density of the reaction mixture was measured at 410 nm to determine the enzymatic activity of the protease VapK.

casein = assay: Alkaline protease activity of culture broth (casein method of Yanagida et al, modified); type: biochemical
Method: as §1
E. coil HB101 harboring the plasmid pSB1 was cultured in an LB medium. The culture broth was recovered and subjected to electrophoresis. As a result (FIG. 8), the expressed protease VapK was detected at the 27 kDa band. In addition, the proteolytic activity of the enzyme was measured.

[3] = type: biochemical
Source text: It can be seen from the above results that the vapk gene contained in the recombinant plasmid pSB1 was expressed in E. coli HB 101 and the expressed protease VapK was secreted extracellularly. […] (FIG. 9).

[4] = inhibitor 1 mM, pre-reacted 20 minutes at 4° C.
[5] = inhibitor 1 mM, pre-reacted 20 minutes at 20° C.

For `N[C@@H](CS)C(=O)O` [L-cysteine], the “Relative Activity (%)” value (protease VapK [1]; [4]) was 99% and the “Relative Activity (%)” value (protease VapK [1]; [5]) was 100%.

For “Polyoxyethylene Alkylether [Polyoxyethylene Alkylether (EO = 15 mol)]”, the “Relative Residual Activity (%)” value (protease VapK [2]; surfactant 30000 ppm) was greater than 100%.

With `O=S(=O)(F)Cc1ccccc1` [PMSF, phenylmethanesulfonyl fluoride] the “inhibition of the enzymatic activity of the protease VapK (in words)” value (protease VapK [1]) was “inhibited”, the “Relative Activity (%)” value (protease VapK [1]; [4]) was 6% and the “Relative Activity (%)” value (protease VapK [1]; [5]) was 13%.

For `O=C(O)CN(CCOCCOCCN(CC(=O)O)CC(=O)O)CC(=O)O` [EGTA, ethyleneglycol-bis(β-aminoethyl ether)N,N,N′,N′-tetraacetic acid], the “Relative Activity (%)” value (protease VapK [1]; [4]) was 100% and the “Relative Activity (%)” value (protease VapK [1]; [5]) was 100%.

In the case of `O=C(O)CN(CCN(CC(=O)O)CC(=O)O)CC(=O)O` [EDTA, ethylenediamine tetraacetic acid], the “Relative Activity (%)” value (protease VapK [1]; inhibitor 100 mM, pre-reacted 20 minutes at 4° C.) is reported as 86% and the “Relative Activity (%)” value (protease VapK [1]; inhibitor 100 mM, pre-reacted 20 minutes at 20° C.) is reported as 100%.

With Sodium-α-olefin sulfonate [AOS] the “Relative Residual Activity (%)” value (protease VapK [2]; surfactant 10000 ppm) was greater than 100% and the “Relative Residual Activity (%)” value (protease VapK [2]; surfactant 15000 ppm) was greater than 70%.

With `CCCCCCCCCCCCOS(=O)(=O)[O-].[Na+]` [SDS, sodium dodecyl sulfate] the “Relative Residual Activity (%)” value (protease VapK [2]; surfactant 1000 ppm) was greater than 100% and the “Relative Residual Activity (%)” value (protease VapK [2]; surfactant 1500 ppm) was less than 70%.

B1: VapK: alkaline serine protease of 27 kDa produced by Vibrio metschnikovii KS1, amino acid sequence SEQ ID NO. 1 (protein, listed as Vibrio metschnikovii)
chain: MFKKNVNRTVLAGLLLPTSISLAIASQLKDQEVPSFTPSVAVENHQTEQRYFVTYVPGATSGPMRMSQNGLTETDFSLQKAADILSTQQVTVINHLESLHTSVVRVTPTQAKQLLDNADVAMIEVDPIRYLFDAEIEPYAQQTPYGIRMVQADQLSDVYAANRKVCVIDSGYLRNHVDLPSAGVTGSTFSGHGSWFTDGNGHGTHVAGTIVALDNNVGVVGVLPSGLVGLHNVKIFNDSGVWTRASDLIQAIQSCQSAGSHVVNMSLGGSQGSVTEQKPMRNFYQQGMLLVAAAGNSGNSGFSYPASYDAVVSVAAVNSSGNVANFSQFNSQVELSAPGVGVLSTGNNGGYLSYSGTSMASPHVAGVAALVWSHFPQCRPERIRQSLSQTALDRGAAGRDNFYGWGIVQARRAYNWLSRNGC
For B1, the “Activity (proteolytic activity of expressed Vap K)” value (casein; Strain E. coli HB 101 harboring plasmid pSB1, LB medium culture broth) was 30.3 unit/ml, the “Activity (proteolytic activity of expressed Vap K)” value (casein; Strain Vibrio metschnikovii KS1, culture broth) was 956.2 unit/ml and the “influence of temperature on stability” value [3] was “influenced slightly”. The “pH of optimum activity” value [3] was 10.5, the “stability over pH” value [3] was “stability in the entire pH range” and the “temperature of optimum activity” value [3] was 50 °C. The “resistance / stability to surfactants (in words)” value (protease VapK [2]; surfactants such as LAS, SDS, AOS, polyoxyethylene alkylether) was “very resistant; also recorded: high resistance; also recorded: very stable”.
